Measured values published in patent US20150148234A1, “HERBICIDE-RESISTANT SUNFLOWER PLANTS WITH MULTIPLE HERBICIDE RESISTANT ALLELES OF AHASL1 AND METHODS OF USE” (NIDERA S.A., priority 2013, published 2015).
Marks after values point to notes of the source that are not given here.

Columns and labels:
[1] = tested on: sunflower line GM40 (A122T); assay: tolerance to imidazolinones, greenhouse (Example 8); details: 160 gr/ha at V4, fourteen days after treatment
[2] = tested on: sunflower line L4, A122T; assay: imazapyr whole plant greenhouse test (Example 2); assay type: in vivo
Experimental: (§1) Seeds were sown in Petri dishes and, after germination, plantlets were transplanted to pots of 10 cm of diameter in a potting media consisting of equal parts of vermiculite, soil and sand. Plants were grown in a greenhouse under natural light conditions supplemented with 400 W sodium halide lamps to provide a 16 hr daylength. Day/night temperatures were 25 and 20 ° C., respectively. At the V2-V4 stage (Schneiter & Miller (1981) Crop Sci. 21:901-903) 10 plants of each genotype were randomly assigned to each treatment consisting of eight imazapyr doses (0, 40, 80, 160, 240, 320, 400 and 480 g ai/ha, corresponding to untreated, 0.5×, 1×, 2×, 3×, 4×, 5× and 6×, respectively), and a zero-time biomass determination. Experiment was arranged as a randomized block design with a full factorial (sunflower line×treatment) arrangement of treatments and 10 replications.
(§2) On the day of herbicide application ten plants of each genotype were cut at the cotyledonal node and dried at 60° C. for 48 hrs for zero-time dried weight determination.
(§3) The remaining plants were maintained for 14 days after imazapyr treatment (DAT) and their height, Phytotoxicity Index (PI) and above ground dry biomass were determined Height was determined as the distance between the cotyledonal node and the apex of each plant. Above ground biomass data from each line were converted to biomass accumulation after application by subtracting the appropriate average zero- time biomass from each sample. Dry biomass data were converted to percentages of the untreated control plants within each line to allow direct comparisons between groups.

[3] = tested on: sunflower genotypes carrying A205V (mean of H1, L1, L2); assay: imazapyr whole plant greenhouse test (Example 2); assay type: in vivo; details: for Phytotoxicity Index (0-9) 14 days after treatment / biomass accumulation 14 days after treatment, % of untreated / plant height 14 days after treatment, % of untreated: A205V Mean
Experimental: as §1, §2, §3

## CC(C)C1(C)N=C(c2ncccc2C(=O)O)NC1=O (centres unmarked) [imazapyr]
[1]
  Mean Phytotoxicity Index (0-9): 0.2
[2]; dose 0.5 (0.5x, 40 g ai/ha)
  Phytotoxicity Index (0-9) 14 days after treatment: 0.0
  biomass accumulation 14 days after treatment, % of untreated: 100.0%
  plant height 14 days after treatment, % of untreated: 100.0%
[2]; dose 1 (1x, 80 g ai/ha)
  Phytotoxicity Index (0-9) 14 days after treatment: 0.0
  biomass accumulation 14 days after treatment, % of untreated: 99.1%
  plant height 14 days after treatment, % of untreated: 100.0%
[2]; dose 2 (2x, 160 g ai/ha)
  Phytotoxicity Index (0-9) 14 days after treatment: 0.0
  biomass accumulation 14 days after treatment, % of untreated: 97.0%
  plant height 14 days after treatment, % of untreated: 101.8%
[2]; dose 3 (3x, 240 g ai/ha)
  Phytotoxicity Index (0-9) 14 days after treatment: 0.0
  biomass accumulation 14 days after treatment, % of untreated: 96.1%
  plant height 14 days after treatment, % of untreated: 97.0%
[2]; dose 4 (4x, 320 g ai/ha)
  Phytotoxicity Index (0-9) 14 days after treatment: 0.0
  biomass accumulation 14 days after treatment, % of untreated: 84.3%
  plant height 14 days after treatment, % of untreated: 92.1%
[2]; dose 5 (5x, 400 g ai/ha)
  Phytotoxicity Index (0-9) 14 days after treatment: 0.0
  biomass accumulation 14 days after treatment, % of untreated: 77.5%
  plant height 14 days after treatment, % of untreated: 84.8%
[2]; dose 6 (6x, 480 g ai/ha)
  Phytotoxicity Index (0-9) 14 days after treatment: 0.5
  biomass accumulation 14 days after treatment, % of untreated: 70.7%
  plant height 14 days after treatment, % of untreated: 79.8%
[3]; dose 0.5 (0.5x, 40 g ai/ha)
  Phytotoxicity Index (0-9) 14 days after treatment: 0
  biomass accumulation 14 days after treatment, % of untreated: 95.3* %
  plant height 14 days after treatment, % of untreated: 99.6%
[3]; dose 1 (1x, 80 g ai/ha)
  Phytotoxicity Index (0-9) 14 days after treatment: 0
  biomass accumulation 14 days after treatment, % of untreated: 85.5** %
  plant height 14 days after treatment, % of untreated: 99.2%
[3]; dose 2 (2x, 160 g ai/ha)
  Phytotoxicity Index (0-9) 14 days after treatment: 2.2*
  biomass accumulation 14 days after treatment, % of untreated: 62.8** %
  plant height 14 days after treatment, % of untreated: 73.7** %
[3]; dose 3 (3x, 240 g ai/ha)
  Phytotoxicity Index (0-9) 14 days after treatment: 5.1**
  biomass accumulation 14 days after treatment, % of untreated: 48.1** %
  plant height 14 days after treatment, % of untreated: 50.1** %
[3]; dose 4 (4x, 320 g ai/ha)
  Phytotoxicity Index (0-9) 14 days after treatment: 7.4**
  biomass accumulation 14 days after treatment, % of untreated: 33.5** %
  plant height 14 days after treatment, % of untreated: 31.5** %
[3]; dose 5 (5x, 400 g ai/ha)
  Phytotoxicity Index (0-9) 14 days after treatment: 8.2**
  biomass accumulation 14 days after treatment, % of untreated: 28.7** %
  plant height 14 days after treatment, % of untreated: 27.7** %
[3]; dose 6 (6x, 480 g ai/ha)
  Phytotoxicity Index (0-9) 14 days after treatment: 8.2**
  biomass accumulation 14 days after treatment, % of untreated: 26.1** %
  plant height 14 days after treatment, % of untreated: 30.4** %
[3]; A205V homozygous, from 2x to 6x, of the untreated controls
  height reduction, value reached: 69.6%
